In brackets after ≈: the same amount, converted by molar mass.
Experiments:
M. tuberculosis = test: Microtiter broth dilution MIC, M. tuberculosis; assay type: cell-based; conditions: Mycobacterium tuberculosis, read-out: Mtb MIC
[1] = biological target: T1, M. smegmatis alanine racemase (Mycolicibacterium smegmatis, UniProt P94967); test: Alanine racemase assay; assay type: biochemical
T1 sequence (P94967 1-389): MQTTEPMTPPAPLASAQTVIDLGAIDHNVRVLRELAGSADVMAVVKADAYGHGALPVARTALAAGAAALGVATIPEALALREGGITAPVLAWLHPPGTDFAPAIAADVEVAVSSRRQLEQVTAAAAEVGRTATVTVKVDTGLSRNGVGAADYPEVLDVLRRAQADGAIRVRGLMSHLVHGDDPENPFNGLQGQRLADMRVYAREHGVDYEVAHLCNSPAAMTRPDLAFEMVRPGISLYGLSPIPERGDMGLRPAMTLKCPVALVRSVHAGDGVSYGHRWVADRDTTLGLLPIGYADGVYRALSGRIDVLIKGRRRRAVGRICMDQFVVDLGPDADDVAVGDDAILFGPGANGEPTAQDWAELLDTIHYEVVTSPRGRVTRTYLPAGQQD

M. tuberculosis H37Rv = test: Microtiter broth dilution MIC, M. tuberculosis H37Rv; assay type: cell-based; conditions: Mycobacterium tuberculosis
M. smegmatis = test: Microtiter broth dilution MIC, M. smegmatis; assay type: cell-based
[2] = system: M. smegmatis and M. tuberculosis growth; test: MIC in the presence of 5 mM D-alanine in the growth medium; assay type: cell-based; conditions: data not shown
[3] = biological target: M. tuberculosis alanine racemase (Mycobacterium tuberculosis, UniProt P9WQA9); assay type: biochemical
Chain of M. tuberculosis alanine racemase (P9WQA9 whole entry): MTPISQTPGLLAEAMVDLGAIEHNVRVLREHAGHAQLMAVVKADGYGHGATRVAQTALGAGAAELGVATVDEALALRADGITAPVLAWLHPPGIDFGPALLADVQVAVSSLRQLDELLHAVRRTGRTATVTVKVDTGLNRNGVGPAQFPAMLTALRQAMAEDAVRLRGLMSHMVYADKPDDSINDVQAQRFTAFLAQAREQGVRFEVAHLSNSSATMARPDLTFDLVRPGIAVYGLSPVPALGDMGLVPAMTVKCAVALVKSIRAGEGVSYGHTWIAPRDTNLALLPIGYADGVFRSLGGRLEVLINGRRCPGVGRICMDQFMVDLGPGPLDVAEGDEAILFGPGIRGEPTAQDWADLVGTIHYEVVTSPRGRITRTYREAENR
C[C@H](N)C(=O)O = test: purified protein, by the assay type
Alanine racemase assay = substrate: C[C@H](N)C(=O)O; test: Alanine racemase assay; assay type: biochemical, M. smegmatis; conditions: other: L-alanine to D-alanine, recombinant enzyme

`N[C@@H]1CON=C1O` [CS, cycloserine] showed an MIC (M. tuberculosis) of 6.25 µg/mL (≈ 61.2 µM), an IC50 [1] greater than 100 µM and an MIC (M. tuberculosis H37Rv) of 6.25 µg/mL (≈ 61.2 µM). The “MSM MIC” value (M. smegmatis; 2 days, Mueller Hinton broth) was 25 µg/mL, the MIC (M. smegmatis; Mycolicibacterium smegmatis, 48 h, read-out: MSM MIC) was 25 µg/mL (≈ 245 µM) and the “increase in MIC” value [2] was 3 fold.

`C[C@H](N)C(=O)O` [L-alanine] showed a Kcat [3] of 200 and a Kcat ([1]; L-alanine to D-alanine, recombinant enzyme) of 4300.

For “M. tuberculosis alanine racemase (Mycobacterium tuberculosis H37Rv)”, the Km (C[C@H](N)C(=O)O) was 4 mM and the Vmax (C[C@H](N)C(=O)O) was 0.04 mM/min.

B1: M. smegmatis alanine racemase (Mycolicibacterium smegmatis) (protein)
chain: T1 sequence (P94967 1-389)
Molecule B1 has a Km (Alanine racemase assay) of 8.5 mM and a Vmax (Alanine racemase assay) of 0.3 mM/min.
